The text below walks through data of PMC5778758, “Functional characterization of oligopeptide transporter 1 of dairy cows” (Journal of Animal Science and Biotechnology, 2018).

Peptide text beside a SMILES is read from it.

For experiment [1], the target named is T1, bPepT1 (Bos taurus, UniProt A5D7E5).
T1 construct: expressed in transfected cells; host or cells: CHO cells, transient transfection with pcDNA3.1-bPepT1
T1 sequence (A5D7E5 1-707): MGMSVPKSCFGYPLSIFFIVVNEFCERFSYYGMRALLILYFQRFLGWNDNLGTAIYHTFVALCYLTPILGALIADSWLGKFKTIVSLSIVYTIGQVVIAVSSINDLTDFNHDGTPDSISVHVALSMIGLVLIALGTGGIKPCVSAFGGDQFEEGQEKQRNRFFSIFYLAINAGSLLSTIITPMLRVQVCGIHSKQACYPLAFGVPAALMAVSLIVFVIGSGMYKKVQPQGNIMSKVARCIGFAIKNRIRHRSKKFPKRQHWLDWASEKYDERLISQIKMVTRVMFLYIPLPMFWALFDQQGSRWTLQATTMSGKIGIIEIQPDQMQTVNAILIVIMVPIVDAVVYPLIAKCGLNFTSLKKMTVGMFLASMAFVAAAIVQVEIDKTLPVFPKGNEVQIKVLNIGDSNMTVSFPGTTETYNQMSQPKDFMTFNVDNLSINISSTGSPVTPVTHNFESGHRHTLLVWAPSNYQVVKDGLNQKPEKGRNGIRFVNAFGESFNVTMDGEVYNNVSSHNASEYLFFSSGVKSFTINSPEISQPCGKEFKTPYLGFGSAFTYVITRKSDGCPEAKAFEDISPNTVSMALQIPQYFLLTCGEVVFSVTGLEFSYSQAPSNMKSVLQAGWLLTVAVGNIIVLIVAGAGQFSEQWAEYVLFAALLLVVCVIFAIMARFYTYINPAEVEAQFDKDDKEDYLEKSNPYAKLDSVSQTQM
In words: Inhibition of [3H]-Gly-Sar uptake in bPepT1-transfected CHO cells. The experiment is classed as cell-based, bovine (dairy cows). The note with it: for IC50: read-out: IC50 (inhibition of [3H]-Gly-Sar uptake), Bovine. How it is done: (§1) The CHO cells were cultured in F12 Ham’s medium that contained 10% FBS. All cell cultures were maintained at 37 °C and 5% CO2 in a humidified atmosphere. The culture medium was changed every other day. One day before transfection, the CHO cells were passaged and plated onto 12-well plates at a density of 5.0 × 10^4 cells/well. The bPepT1 cDNA [19] was cloned into the pcDNA3.1 expression vector (Invitrogen, Carlsbad, USA). When the CHO cells were cultured to approximately 70–90% confluence, the cells were transfected with the pcDNA3.1-bPepT1 vector or the pcDNA3.1 vector as a control. For each well, 1 μg of DNA was mixed with 2 μL of P3000™ and 1 μL of Lipofectamine 3000 (Invitrogen, Carlsbad, USA) in 50 μL of OPTI-MEM and incubated at room temperature for 5 min. Then, the DNA-lipid complex was added into each well and the cells were transfected for 24 h.
(§2) The transport activity of bPepT1 was determined using [^3H]-Gly-Sar (3.7 × 10^4 Bq/mL), a well-known hydrolysis-resistant peptide substrate, in transiently transfected CHO cells. The transfected cells were washed three times with uptake buffer at pH 6.0 which contained 140 mmol/L NaCl, 5.4 mmol/L KCl, 0.8 mmol/L MgSO4, 1.8 mmol/L CaCl2, 5 mmol/L glucose, and 25 mmol/L MES. Then, the cells were preincubated with the buffer for 30 min at 37 °C.
For the transport time study, the transfected CHO cells were incubated with 0.02 mmol/L of [^3H]-Gly-Sar (3.7 × 10^4 Bq/mL) for various times (1, 5, 10, 20, 40, and 60 min). For the pH dependency study, the pH of the uptake buffer was adjusted to various pH (5.0, 5.5, 6.0, 6.5, 7.0, and 7.5) with HEPES/Tris or MES/Tris. For the transport kinetic study, Gly-Sar was prepared at various concentrations (0.02–10 mmol/L) with 3.7 × 10^4 Bq/mL [^3H]-Gly-Sar. For the inhibition study, 15 small peptides that contained essential AA at five concentrations (0.001–10 mmol/L) were added into the uptake buffer with [^3H]-Gly-Sar, and they were incubated with the CHO cells for 5 min. Then, the concentration of unlabeled peptide that inhibited 50% of [^3H]-Gly-Sar uptake (IC50) was calculated using PRISM software (GraphPad, San Diego, CA, USA). Uptake was stopped by washing with ice-cold uptake buffer. The cells were lysed by adding 0.5 mL lysis buffer that contained 1% Triton X-100, followed by incubation at 37 °C for 60 min. The radioactivity of the cell lysate was measured using liquid scintillation counting (LSC, Wallac1414, Wallac Co., Turku, Finland). The total protein of the cell lysate was determined using a BCA Protein Assay Kit (Beyotime). The uptake was expressed as nmol/(mg protein • 5 min).

Experiment [2] has as its system sheep PepT1. Particulars: CHO cells transfected with sheep PepT1 cDNA; ref Chen et al. [14]; cited from earlier work. The text has this: Table 1 Kinetic parameters of CHO cells transfected with bovine, sheep, pig, and chicken PepT1 cDNA | column: IC50, mmol/L / Sheep^c
The subject of the next experiment is pig PepT1. The note with it: CHO cells transfected with pig PepT1 cDNA; CBD = cannot be determined; ref Klang et al. [17]; cited from earlier work. An excerpt: Table 1 Kinetic parameters of CHO cells transfected with bovine, sheep, pig, and chicken PepT1 cDNA | column: IC50, mmol/L / Pig^d
In experiment [3] the test system is chicken PepT1. The note with it: CHO cells transfected with chicken PepT1 cDNA; ref Chen et al. [15]; cited from earlier work. The text has this:
Table 1 Kinetic parameters of CHO cells transfected with bovine, sheep, pig, and chicken PepT1 cDNA | column: IC50, mmol/L / Chicken^e

For experiment [4], the target named is T1, bPepT1. Put plainly: Time course of [3H]-Gly-Sar uptake in transfected CHO cells. The experiment is classed as cell-based, bovine (dairy cows). The note with it: 0.02 mmol/L; 1–60 min; 24 h after transfection with bPepT1; n = 5. How it is done:
as §1, with “Then, the DNA-lipid complex was added into each well and the cells were transfected for 24 h.” left out
(§3) The transport activity of bPepT1 was determined using [^3H]-Gly-Sar (3.7 × 10^4 Bq/mL), a well-known hydrolysis-resistant peptide substrate, in transiently transfected CHO cells. […]
(§4) For the transport time study, the transfected CHO cells were incubated with 0.02 mmol/L of [^3H]-Gly-Sar (3.7 × 10^4 Bq/mL) for various times (1, 5, 10, 20, 40, and 60 min). […] The radioactivity of the cell lysate was measured using liquid scintillation counting (LSC, Wallac1414, Wallac Co., Turku, Finland). The total protein of the cell lysate was determined using a BCA Protein Assay Kit (Beyotime). The uptake was expressed as nmol/(mg protein • 5 min).

The subject of a further experiment is CHO cells. Put plainly: [3H]-Gly-Sar uptake in CHO cells transfected with pcDNA3.1 control vector. In kind it is cell-based, Chinese hamster. The note with it: 0.02 mmol/L, 1–60 min, n = 5. How it is done: as §1, with “Then, the DNA-lipid complex was added into each well and the cells were transfected for 24 h.” left out
as §3, §4

The subject of experiment [5] is sheep PepT1. The note with it: ref [14], read-out: Km for Gly-Sar, sheep; cited from earlier work. An excerpt:
(§5) These features of bPepT1 met the requirement for transporting a large number of various small peptides. The str ...

Experiment [6] concerns chicken PepT1. The note with it: ref [15], read-out: Km for Gly-Sar, chickens; cited from earlier work.
Source text: as §5

Experiment [7] addresses T1, bPepT1. In words: pH dependency of Gly-Sar uptake in bPepT1-transfected CHO cells. The experiment is classed as cell-based, bovine (dairy cows). Particulars: 0.02 mmol/L [3H]-Gly-Sar; pH 5.0–7.5; 5 min; n = 4; P < 0.05. How it is done: as §1, with “Then, the DNA-lipid complex was added into each well and the cells were transfected for 24 h.” left out
as §3, §4

Experiment [8] deals with T1, bPepT1. Put plainly: Gly-Sar transport kinetics in bPepT1-transfected CHO cells. In kind it is cell-based, bovine (dairy cows). The note with it: 5 min, n = 6. How it is done: as §1, §2
For the transport time study, the transfected CHO cells were incubated with 0.02 mmol/L of [^3H]-Gly-Sar (3.7 × 10^4 Bq/mL) for various times (1, 5, 10, 20, 40, and 60 min). For the pH dependency study, the pH of the uptake buffer was adjusted to various pH (5.0, 5.5, 6.0, 6.5, 7.0, and 7.5) with HEPES/Tris or MES/Tris. For the transport kinetic study, Gly-Sar was prepared at various concentrations (0.02–10 mmol/L) with 3.7 × 10^4 Bq/mL [^3H]-Gly-Sar. […] The radioactivity of the cell lysate was measured using liquid scintillation counting (LSC, Wallac1414, Wallac Co., Turku, Finland). The total protein of the cell lysate was determined using a BCA Protein Assay Kit (Beyotime). The uptake was expressed as nmol/(mg protein • 5 min).

Setting [9] is: 0.02 mmol/L [3H]-Gly-Sar (3.7 × 10^4 Bq/mL), unlabeled peptide 0.001–10 mmol/L, pH 6.0, 5 min, liquid scintillation counting, n = 4 (Fig. 6), CBD = cannot be determined.

On to `NCCCC[C@H](NC(=O)CN)C(=O)O` [Gly-Lys] (H-Gly-Lys-OH), for which, on bPepT1 [1] (setting [9]), the IC50 was determined as 78 µM.

With `CSCC[C@H](NC(=O)CN)C(=O)O` [Gly-Met], the IC50 at bPepT1 [1] (setting [9]) was 32 µM.

Take `NCC(=O)O` [Gly]: the “Inhibition of [3H]-Gly-Sar uptake (in words)” value at bPepT1 [1] (0.02 mmol/L [3H]-Gly-Sar, pH 6.0, 5 min) is reported as “not inhibited”.

Take `CC(C)C[C@H](N)C(=O)NCC(=O)NCC(=O)O` [Leu-Gly-Gly] (H-Leu-Gly-Gly-OH): the IC50 at bPepT1 [1] (setting [9]) amounted to 2070 µM.

Turning to `NCCCC[C@H](NC(=O)[C@@H](N)CCCCN)C(=O)O` [Lys-Lys], the IC50 at bPepT1 [1] (setting [9]) was found to be 9650 µM.

Consider `CSCC[C@H](NC(=O)[C@@H](N)CCCCN)C(=O)O` [Lys-Met], for which the IC50 at bPepT1 [1] (setting [9]) was found to be 32 µM.

For `NCCCC[C@H](N)C(=O)N[C@@H](Cc1ccccc1)C(=O)O` [Lys-Phe], the IC50 at bPepT1 [1] (setting [9]) is 90 µM.

For `NCCCC[C@H](NC(=O)[C@H](Cc1c[nH]c2ccccc12)NC(=O)[C@@H](N)CCCCN)C(=O)O` [Lys-Trp-Lys] (H-Lys-Trp-Lys-OH; N-terminus and C-terminus assumed), at bPepT1 [1] (setting [9]), the “IC50 (inhibition of [3H]-Gly-Sar uptake), Bovine” value is on record as “CBD”. Besides, the IC50 was over 2070 µM on bPepT1 [1] (setting [9]), 3730 µM in the experiment with sheep PepT1 [2], 2200 µM in the experiment on pig PepT1 and 5900 µM in the experiment with chicken PepT1 [3]. The “Favorability as substrate / affinity for bPepT1 (in words)” value on bPepT1 [1] (judged from IC50 values) is “less favorable substrates for bPepT1”.

Take `CSCC[C@H](N)C(=O)N[C@@H](CCC(=O)O)C(=O)O` [Met-Glu] (H-Met-Glu-OH): the IC50 at bPepT1 [1] (setting [9]) stood at 23 µM.

Regarding `CSCC[C@H](NC(=O)[C@H](CCSC)NC(=O)CNC(=O)[C@@H](N)CCSC)C(=O)O` [Met-Gly-Met-Met] (H-MGMM-OH), the IC50 at bPepT1 [1] (setting [9]) stood at 6040 µM.

Turning to `CSCC[C@H](N)C(=O)NCC(=O)O` [Met-Gly] (H-Met-Gly-OH), on bPepT1 [1] (setting [9]), the IC50 stood at 58 µM.

As to `CSCC[C@H](N)C(=O)N[C@@H](CC(C)C)C(=O)N[C@@H](Cc1ccccc1)C(=O)O` [Met-Leu-Phe], on bPepT1 [1] (setting [9]), the IC50 turned out to be 50 µM.

Take `CSCC[C@H](N)C(=O)N[C@@H](CC(C)C)C(=O)O` [Met-Leu] (H-Met-Leu-OH): on bPepT1 [1] (setting [9]), the IC50 turned out to be 80 µM.

Consider `CSCC[C@H](N)C(=O)N[C@@H](CCCCN)C(=O)O` [Met-Lys] (H-Met-Lys-OH), for which the IC50 on bPepT1 [1] (setting [9]) turned out to be 20 µM.

In the case of `CSCC[C@H](NC(=O)[C@@H](N)CCSC)C(=O)O` [Met-Met] (H-Met-Met-OH), the IC50 at bPepT1 [1] (setting [9]) worked out at 96 µM.

In the case of `N[C@@H](Cc1c[nH]c2ccccc12)C(=O)N[C@@H](Cc1ccccc1)C(=O)O` [Trp-Phe] (H-Trp-Phe-OH), the IC50 on bPepT1 [1] (setting [9]) turned out to be 14 µM.

As to glycyl-sarcosine [Gly-Sar], the “Time course of [3H]-Gly-Sar uptake” value at bPepT1 [4] was “increased rapidly and linearly in the first 10 min and reached a plateau subsequently”. Besides, the “[3H]-Gly-Sar uptake in control-vector cells” value in the experiment on CHO cells is “only marginal, and it was much lower than in CHO cells that were transfected with the bPepT1 expression vector”. Further, the Km is 1000 ± 100 µM in the experiment with sheep PepT1 [5]; 2600 ± 300 µM with chicken PepT1 [6]; 940 ± 60 µM at bPepT1 [8] (Gly-Sar 0.02–10 mmol/L with 3.7 × 10^4 Bq/mL [3H]-Gly-Sar, 37 °C preincubation, Michaelis–Menten, mean ± SEM). On bPepT1 [7], the “pH dependency of [3H]-Gly-Sar uptake” value was “pH-dependent and greater at pH 6.5 and 7.0 than at pH 5.5 and 6.0 which was greater than at pH 5.0 and 7.5”. Moreover, the “maximum velocity (Vmax)” value on bPepT1 [8] (Gly-Sar 0.02–10 mmol/L with 3.7 × 10^4 Bq/mL [3H]-Gly-Sar, Michaelis–Menten, mean ± SEM) is given as 20.80 ± 1.74 nmol/(mg protein • 5 min). Moreover, the “Gly-Sar concentration at which transport was saturated” value at bPepT1 [8] (Gly-Sar 0.02–10 mmol/L) is listed as 5 mmol/L.

What is called IC50 is the concentration at which inhibition is half-maximal. Broadly, the Km is the substrate concentration at which the rate is half of its maximum.
